Assay results: US20110212948A1 (priority 2008, published 2011)
Where two headings read alike, the source gives them in different places.

Tests used:
[1] = Multiple dose study: gastroscopy; type: in vivo, foals
[2] = Multiple dose study: peak and trough plasma meloxicam concentrations; type: in vivo, foals
Method: Blood for ‘trough’ serum levels was collected from foals immediately prior to administration of morning treatment. ‘Peak’ plasma concentrations were determined from blood samples collected 2 hours following administration of the morning treatment (as per the schedule above).

[3] = adult horses, cited from earlier work
[4] = adult horses, cited from earlier work; remark: listed apart in the source
[5] = in vivo, 0.6 mg/kg
[6] = current study, foals, single oral dose 0.6 mg/kg, mean ± SD
[7] = Faecal occult blood testing with guaiac-based slides (Hemoccult Sensa); type: in vivo; conditions: treated and control foals, all occasions
Method: Faecal occult blood testing using guaiac-based slides (Hemoccult Sensa, Beckman Coulter Australia Pty Ltd, Gladesville, NSW) was evaluated for the detection of gastrointestinal bleeding in treated and control foals. This technique has been reported as a sensitive method for identifying gastric or right dorsal colon ulceration in adult horses (Pellegrini 2005). Faecal samples were collected on DSP days from all foals and processed according to the manufacturer's instructions. Tests were negative for blood (haemoglobin) on all occasions.

[8] = Multiple dose study: veterinary examination, haematology and serum biochemistry; conditions: 0.6 mg/kg every 12 hours for 14 days; except serum cholesterol
Method: Six foals were available for inclusion in this part of the study and were randomly assigned to treatment (four foals) or control groups (two foals). […] To ensure foals were recruited into the study within 4 weeks of birth, the study was performed twice, with 2 treated and one control foal in each replicate.
Foals were examined twice daily for the duration of the study. Staff responsible for veterinary examination of foals were blinded to treatment.
Peripheral blood samples were submitted for routine haematology and serum biochemistry at a commercial laboratory (Idexx Laboratories, Rydalmere, NSW) twice weekly (treatment days 0, 2, 6, 9, 13 and 16). Gastroscopy and urine analysis (Dip Stik and urine enzyme analysis1) were performed weekly on all foals.

[9] = Bioequivalence study (CML039) Reference
[10] = Bioequivalence study (CML039) Test

Gastroscopy finding, margo plicatus of a treated foal (FIG. 18) ([1]; Day 7 of multiple dose study): normal margo plicatus
Gastroscopy finding, treated foal F8 (FIG. 21) ([1]; Day 7 of multiple dose study, erythemia already present before single dose): superficial erosions of squamous mucosa
Accumulation of drug in serum ([2]; foals, 0.6 mg/kg by mouth every 12 hours for 14 days): did not appear to accumulate
concentration at 14 days ([2]; horse, in vivo, foals less than 6 weeks, 0.6 mg/kg by mouth every 12 hours): 100 to 1000 ng/mL
concentration at 2 h ([2]; horse, in vivo, foals, 0.6 mg/kg by mouth every 12 hours for 14 days, 2 h after morning dose, read-out: Peak serum concentrations with repeated dosing): 500 to 1200 ng/mL
Albumin, mean post-Tx (±sem) ([5]; po): 29 (±1) g/L
Creatinine, median post-Tx ([5]; po): 0.09 mmol/L
Glucose, mean post-Tx (±sem) ([5]; po): 8.8 (±0.6) mmol/L
Haemoglobin, mean post-Tx (±sem) ([5]; po): 123 (±4) g/L
PCV, mean post-Tx (±sem) ([5]; po): 35 (±1) %
Potassium, median post-Tx ([5]; po): 4.0 mmol/L
Sodium, mean post-Tx (±sem) ([5]; po): 138 (±1) mmol/L
Urea, mean post-Tx (±sem) ([5]; po): 2.1 (±0.1) mmol/L
Area under curve [6]: 3870.3 ng/mL/h
Faecal occult blood (haemoglobin) [7]: negative
Haematology and serum biochemistry, treated vs control foals [8]: no significant differences
Structure (SMILES): Cc1cnc(NC(=O)C2=C(O)c3ccccc3S(=O)(=O)N2C)s1 [meloxicam]
Gastroscopy finding, margo plicatus of same treated foal (FIG. 19) ([1]; Day 14 of multiple dose study): small, well circumscribed and very superficial ulcer
Gastric mucosal damage on gastroscopic examination ([1]; all foals, 0.6 mg/kg every 12 hours for 14 days): failed to identify evidence of significant gastric mucosal damage
Gastroscopy finding, treated foal F8 (FIG. 22) ([1]; following 14 days of treatment): no evidence of ongoing mucosal ulceration
Area under curve [3, 9]: 10752.4 ng/mL/h
Cmax (oral admin) [3, 9]: 777.5 ng/mL
Tmax (oral admin) [3, 9]: 3.8 h
Area under curve [3, 10]: 11281.0 ng/mL/h
Tmax (oral admin) [3, 10]: 2.6 h
Cmax ([4]; Lees et al 1991 (IV administration)): 9230 ng/mL
Area under curve ([4]; Lees et al 1991): 14530 ng/mL/h
Cmax ([4]; Little et al 2007 (IV administration)): 9780 ng/mL
Area under curve ([4]; Little et al 2007): 33440 ng/mL/h
Cmax (oral admin) ([4]; Toutain et al 2004b): 2580 ng/mL
Bioavailability (fasted) ([4]; fasted, Toutain et al 2004b): 85.3
Bioavailability (fed) ([4]; fed, Toutain et al 2004b): 95.9
Adverse effects after a single oral dose (physical examination) [5]: no adverse effects
